Broadly, the IC50 is the concentration that inhibits the measured activity by half. As usually defined, the Km is the concentration of substrate that gives half-maximal velocity.

Format in all cases: biochemical
The target of assay [1] is T1, recombinant human PDE2A4 (Homo sapiens, UniProt O00408, P38L/T213A/V664A).
T1 construct: made in house; host or cells: QM-7 cells (quail myoblast line), transient transfection, crude cell lysate
The experiment in a line: Inhibition of recombinant human PDE2A4 enzyme activity (QM7 lysate). The conditions noted are these: QM7 lysate containing recombinant human PDE2A4. Here is the method:
FIG. 3. EHNA inhibition of hsPDE2A4 activity. QM7 lysate containing recombinant human PDE2A4 was used in inhibition assay with increased concentration of inhibitors (EHNA and Rolipram; 10^−9-10^−[…]). The data and graph were analyzed and generated using Prism software.
(§1) To express in active form, human PDE2A4 cDNA was cloned downstream of the CMV promoter into pcDNA3.1/V5-His-TOPO vector, and the plasmid was transiently transfected into QM-7 cells by lipofectamine-plus reagent (Invitrogen). Forty-eight hours after the transfection, the QM-7 cells were lysed in buffer containing 50 mM Tris/HCl, 10 mM NaCl, 5 mM EGTA, 1 mM EDTA, 1 mM DTT and proteinase inhibitor cocktail (Roche). The cell lysate was used as a source for recombinant hsPDE2A4 enzyme.
(§2) The enzyme activity assay was performed according to Thompson et al, Ann N Y Acad Sci, 185:36-41 (1971) and Alvarez et al, Anal Biochem, 203:76-82 (1992) in the presence of 50 mM Tris/HCl, pH 8.0, 5 mM MgCl2, 4 mM 2-mercaptoethanol and 0.3 mg/ml BSA. […] The experiments were performed in duplicates for each substrate concentration. The Km and Vmax were calculated with Michaelis-Menten equation on Prism software.

Assay [2] addresses T1, recombinant human PDE2A4. The experiment in a line: Enzyme activity assay, Km and Vmax of human PDE2A4 for cAMP and cGMP. The procedure: as §1, §2
The target in assay [3] is T1, recombinant human PDE2A4. The experiment in a line: cGMP stimulation of hsPDE2A4 cAMP-hydrolyzing activity. The settings on record: 10 μM cGMP; cAMP substrate 30 μM ([3H]-cAMP/cAMP). The procedure: FIG. 4. cGMP stimulation of hsPDE2A4 activity. QM7 lysate containing recombinant human PDE2A4 was used in stimulation assay. […] The enzyme activities in the absence or presence of 10 μM cGMP were compared. Data analysis was performed using Prism software.
as §1, §2
The enzymatic activity of recombinant human PDE2A4 can be stimulated by cGMP, a unique characteristic for PDE2 gene family (FIG. 4).

[4] abbreviates: substrate of human PDE2A4, QM-7 cell lysate, Michaelis-Menten, Prism.

T1 sequence (O00408 1-932 isoform O00408-4 P29L/T204A/V655A): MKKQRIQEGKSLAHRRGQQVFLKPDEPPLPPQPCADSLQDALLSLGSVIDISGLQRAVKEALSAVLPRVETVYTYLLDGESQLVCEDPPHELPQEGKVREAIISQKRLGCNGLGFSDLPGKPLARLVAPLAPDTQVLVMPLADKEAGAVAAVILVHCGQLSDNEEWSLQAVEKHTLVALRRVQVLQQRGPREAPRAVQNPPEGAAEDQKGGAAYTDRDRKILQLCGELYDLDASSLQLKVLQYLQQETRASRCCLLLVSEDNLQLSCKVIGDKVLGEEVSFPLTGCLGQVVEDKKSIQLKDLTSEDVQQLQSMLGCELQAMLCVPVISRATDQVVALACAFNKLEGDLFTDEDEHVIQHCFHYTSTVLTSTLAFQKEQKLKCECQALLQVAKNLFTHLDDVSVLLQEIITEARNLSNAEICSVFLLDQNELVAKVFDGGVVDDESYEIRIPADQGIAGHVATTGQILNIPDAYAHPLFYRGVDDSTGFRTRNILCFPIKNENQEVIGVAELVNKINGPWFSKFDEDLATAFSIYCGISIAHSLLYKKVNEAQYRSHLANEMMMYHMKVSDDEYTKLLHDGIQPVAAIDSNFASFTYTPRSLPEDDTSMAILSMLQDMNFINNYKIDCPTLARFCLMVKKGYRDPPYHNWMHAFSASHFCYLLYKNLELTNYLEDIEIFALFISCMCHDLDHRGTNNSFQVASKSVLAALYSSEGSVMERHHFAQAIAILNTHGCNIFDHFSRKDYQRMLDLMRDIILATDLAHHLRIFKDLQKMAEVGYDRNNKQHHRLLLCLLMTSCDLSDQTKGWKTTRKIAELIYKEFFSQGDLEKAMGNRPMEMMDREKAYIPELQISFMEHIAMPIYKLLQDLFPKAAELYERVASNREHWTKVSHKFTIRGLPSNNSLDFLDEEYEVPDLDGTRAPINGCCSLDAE

On to `CCCCCCC(C(C)O)n1cnc2c(N)ncnc21` (stereo not drawn) [EHNA, erythro-9-(2-hydroxy-3-nonyl)adenine], for which, on recombinant human PDE2A4 [1] (inhibitors 10^−9-10^−4 μM, read-out: IC50, inhibition of enzymatic activity of recombinant human PDE2A4), the IC50 turned out to be 1.1 µM.

As for `COc1ccc(C2CNC(=O)C2)cc1OC1CCCC1` (stereo not drawn) [Rolipram], the “inhibitory effect on human PDE2A4 enzyme activity” value on recombinant human PDE2A4 [1] (inhibitors 10^−9-10^−4 μM (FIG. 3)) is recorded as “no inhibitory effect”.

As to `Nc1nc2c(ncn2[C@@H]2O[C@@H]3COP(=O)(O)O[C@H]3[C@H]2O)c(=O)[nH]1` [cGMP, cyclic guanosine 5′ monophosphate], on recombinant human PDE2A4 [2] (cGMP versus cAMP), the “affinity of human PDE2A4 for cGMP relative to cAMP” value is about 2 fold. Also, on recombinant human PDE2A4 [2] (setting [4]), the Km came out at 17.5 µM and the Vmax result was “Vmax = 334.4 ± 16.0 pmol/mg/min”. Also, at recombinant human PDE2A4 [3], the “stimulation of activity for hydrolyzing cAMP” value is on record as “elevated more than three-fold”.

(Values after patent US20060168668A1, “Phosphodiesterase 2a and methods of use” (Memory Pharmaceuticals Corporation, priority 2003, published 2006).)
